Laboratory results as given in ChEMBL document CHEMBL1144356 (J Med Chem, 2005).
pEC50, pIC50: −log10 of the molar value.

What was measured:
Canis familiaris [1] = assay: Effect on cholesterol lowering in male Beagle dog at an oral dose of 0.01 mkd for 10 days
[2] = molecular target: T1, Peroxisome proliferator-activated receptor delta (Homo sapiens, UniProt Q03181); assay: In vitro binding affinity for PPAR-delta
T1 sequence (Q03181 whole entry): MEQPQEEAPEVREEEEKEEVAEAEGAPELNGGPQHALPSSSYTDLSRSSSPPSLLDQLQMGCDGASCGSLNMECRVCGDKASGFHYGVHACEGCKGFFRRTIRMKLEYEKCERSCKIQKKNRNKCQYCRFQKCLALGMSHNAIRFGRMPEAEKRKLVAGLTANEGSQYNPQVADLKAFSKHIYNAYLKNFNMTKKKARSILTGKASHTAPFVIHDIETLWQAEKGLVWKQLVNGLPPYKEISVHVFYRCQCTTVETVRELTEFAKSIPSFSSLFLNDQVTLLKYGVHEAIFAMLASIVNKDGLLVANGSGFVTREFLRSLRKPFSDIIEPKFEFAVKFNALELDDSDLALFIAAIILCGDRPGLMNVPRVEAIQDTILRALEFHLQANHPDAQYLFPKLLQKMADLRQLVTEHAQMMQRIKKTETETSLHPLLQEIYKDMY

[3] = In vitro binding affinity for PPAR-alpha; design: species or system Homo sapiens
Canis familiaris [4] = assay: Effect on cholesterol lowering in male Beagle dog at an oral dose of 0.03 mkd for 10 days
Cricetinae gen. sp. [5] = assay: Effect at an oral dose of 0.1 mg/kg/day for 14 days on serum cholesterol level of hamster; type: functional, Cricetulus griseus
Canis familiaris [6] = assay: Effect on cholesterol lowering in male Beagle dog at an oral dose of 0.3 mkd for 7 days
Canis familiaris [7] = assay: Effect on cholesterol lowering in male Beagle dog at an oral dose of 0.3 mkd for 15 days
Canis familiaris [8] = assay: Effect on cholesterol lowering in male Beagle dog at an oral dose of 0.03 mkd for 3 days
Cricetinae gen. sp. [9] = assay: Effect at an oral dose of 1 mg/kg/day for 14 days on serum cholesterol level of hamster; type: functional, Cricetulus griseus
Canis familiaris [10] = assay: Effect on cholesterol lowering in male Beagle dog at an oral dose of 0.01 mkd for 7 days
Canis familiaris [11] = assay: Effect on cholesterol lowering in male Beagle dog at an oral dose of 0.01 mkd for 3 days
Canis familiaris [12] = assay: Effect on cholesterol lowering in male Beagle dog at an oral dose of 0.3 mkd for 15 days with 4 mkd simavastatin
[13] = molecular target: T2, Peroxisome proliferator-activated receptor alpha (Homo sapiens, UniProt Q07869); assay: Effective concentration against human PPAR-alpha in Gal4 transactivation assay; type: functional
T2 sequence (Q07869 whole entry): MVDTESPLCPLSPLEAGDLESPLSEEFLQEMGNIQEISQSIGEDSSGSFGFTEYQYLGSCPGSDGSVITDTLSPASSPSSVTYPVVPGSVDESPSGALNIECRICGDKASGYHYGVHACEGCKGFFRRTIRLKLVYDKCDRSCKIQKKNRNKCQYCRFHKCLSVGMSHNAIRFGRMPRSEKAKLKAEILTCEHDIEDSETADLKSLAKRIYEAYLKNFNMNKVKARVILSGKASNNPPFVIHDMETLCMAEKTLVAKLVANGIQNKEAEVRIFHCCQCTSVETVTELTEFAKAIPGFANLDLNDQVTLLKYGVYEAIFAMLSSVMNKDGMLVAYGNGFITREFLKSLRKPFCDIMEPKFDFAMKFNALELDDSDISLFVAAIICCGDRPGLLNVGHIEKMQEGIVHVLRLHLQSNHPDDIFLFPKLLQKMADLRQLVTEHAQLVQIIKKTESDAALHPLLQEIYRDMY

[14] = molecular target: T3, Peroxisome proliferator-activated receptor gamma (Homo sapiens, UniProt P37231); assay: Effective concentration against human PPAR-gamma in Gal4 transactivation assay; 30% response at 3 uM; type: functional
T3 sequence (P37231 whole entry): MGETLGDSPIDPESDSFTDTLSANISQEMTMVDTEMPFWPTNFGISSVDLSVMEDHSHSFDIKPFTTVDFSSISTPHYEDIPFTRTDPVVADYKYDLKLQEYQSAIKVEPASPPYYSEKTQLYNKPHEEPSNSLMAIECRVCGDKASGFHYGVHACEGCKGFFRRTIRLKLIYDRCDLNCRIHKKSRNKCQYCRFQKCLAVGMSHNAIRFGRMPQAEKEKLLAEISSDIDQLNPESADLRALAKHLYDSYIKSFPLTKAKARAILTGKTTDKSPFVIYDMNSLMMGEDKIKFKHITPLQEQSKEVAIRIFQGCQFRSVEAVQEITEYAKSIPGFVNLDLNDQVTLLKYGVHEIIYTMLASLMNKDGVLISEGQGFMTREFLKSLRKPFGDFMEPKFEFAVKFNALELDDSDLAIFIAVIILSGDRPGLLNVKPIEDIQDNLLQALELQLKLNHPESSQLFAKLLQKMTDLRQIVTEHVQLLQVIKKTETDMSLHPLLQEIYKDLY

Canis familiaris [15] = assay: Effect on cholesterol lowering in male Beagle dog at an oral dose of 0.1 mkd for 10 days
Canis familiaris [16] = assay: Effect on cholesterol lowering in male Beagle dog at an oral dose of 0.03 mkd for 15 days
Cricetinae gen. sp. [17] = assay: Effect at an oral dose of 0.3 mg/kg/day for 14 days on serum triglyceride level of hamster; type: functional, Cricetulus griseus
Canis familiaris [18] = assay: Effect on cholesterol lowering in male Beagle dog at an oral dose of 0.1 mkd for 15 days
[19] = molecular target: T4, Peroxisome proliferator-activated receptor alpha (Canis lupus familiaris, UniProt Q95N78); assay: Effective concentration against canine PPAR-alpha in Gal4 transactivation assay
T4 sequence (Q95N78 whole entry): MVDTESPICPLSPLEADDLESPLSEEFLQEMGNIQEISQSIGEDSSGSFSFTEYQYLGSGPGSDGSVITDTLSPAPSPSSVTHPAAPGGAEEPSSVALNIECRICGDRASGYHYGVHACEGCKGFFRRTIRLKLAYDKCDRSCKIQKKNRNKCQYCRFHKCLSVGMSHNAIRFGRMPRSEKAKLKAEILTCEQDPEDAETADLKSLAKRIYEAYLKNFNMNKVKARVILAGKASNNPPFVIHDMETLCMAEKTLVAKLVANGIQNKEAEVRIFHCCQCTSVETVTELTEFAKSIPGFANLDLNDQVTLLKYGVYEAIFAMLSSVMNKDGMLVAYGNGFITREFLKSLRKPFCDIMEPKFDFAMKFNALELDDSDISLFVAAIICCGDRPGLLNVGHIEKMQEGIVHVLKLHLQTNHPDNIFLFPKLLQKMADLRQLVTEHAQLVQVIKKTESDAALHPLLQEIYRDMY

pIC50 [2]: < 4.82 | pIC50 [3]: 8.22 | pEC50 [13]: 8.70 | pEC50 [14]: < 5.52 | pEC50 [19]: 8.70
Structure (SMILES): CC[C@@]1(C(=O)O)Cc2cc(OCCCOc3ccc(OC(F)(F)F)cc3Cl)ccc2O1
TC (Canis familiaris [1]): -11.7% | TC (Canis familiaris [4]): -17.9% | TC (Cricetinae gen. sp. [5]): -15% | TC (Canis familiaris [6]): -17.4% | TC (Canis familiaris [7]): -24.2% | TC (Canis familiaris [8]): -6.5% | TC (Cricetinae gen. sp. [9]): -42% | TC (Canis familiaris [10]): -7.2% | TC (Canis familiaris [11]): -6.7% | TC (Canis familiaris [12]): -39.7% | TC (Canis familiaris [15]): -22.1% | TC (Canis familiaris [16]): -24.3% | TG (Cricetinae gen. sp. [17]): -31.85% | TC (Canis familiaris [18]): -22.1%
